The nature of data set [1]: human study of oral lutein dose, plasma carotenoid profile. As to conditions: oral 10 mg lutein dose as suspension in olive oil (ethanol, α-tocopherol, polysorbate 80), spread on a bagel. The format is in vivo. The protocol:
Carotenoids are considered among the fat soluble nutrients and are usually associated with the lipoprotein fractions of human blood. […] In the following, the procedure employed for the preparation of a small batch (100 dose, each 10 mg) of purified lutein is described.
Purified lutein from marigold flowers extract (1 g) was added to absolute alcohol (75 mL). To this solution α-tocopherol (50 mg) and food grade polysorbate 80 (an emulsifier, 4 g) was added and the mixture was sonicated for 10 minutes. The addition of α-tocopherol (0.01% by weight) was to stabilize lutein and prevent this compound from possible oxidation during long term storage. The above suspension was then mixed with 350 g of light and mild olive oil (saturated fat/polyunsaturated fat=2/1) and the mixture was sonicated for 5 minutes. […] 7 mL aliquots of this suspension was shown by spectrophotometric analysis to contain 10 mg of lutein. At various intervals, the stability and the purity of lutein suspension in the olive oil was determined by spectrophotometric and HPLC analysis. […] In one study each 7 mL aliquot of the olive oil (containing 10 mg lutein) was spread on a bagel prior to ingestion. Alternatively, this small volume of oil can be readily taken with other foods. […]

A short description of data set [2]: stability of lutein suspension in olive oil by spectrophotometric and HPLC analysis. As to conditions: suspension in olive oil with α-tocopherol and polysorbate 80, stored under nitrogen in a refrigerator. The data set is classed as physicochemical. How it is done: Purified lutein from marigold flowers extract (1 g) was added to absolute alcohol (75 mL). To this solution α-tocopherol (50 mg) and food grade polysorbate 80 (an emulsifier, 4 g) was added and the mixture was sonicated for 10 minutes. The addition of α-tocopherol (0.01% by weight) was to stabilize lutein and prevent this compound from possible oxidation during long term storage. The above suspension was then mixed with 350 g of light and mild olive oil (saturated fat/polyunsaturated fat=2/1) and the mixture was sonicated for 5 minutes. […] 7 mL aliquots of this suspension was shown by spectrophotometric analysis to contain 10 mg of lutein. At various intervals, the stability and the purity of lutein suspension in the olive oil was determined by spectrophotometric and HPLC analysis. […] In one study each 7 mL aliquot of the olive oil (containing 10 mg lutein) was spread on a bagel prior to ingestion. Alternatively, this small volume of oil can be readily taken with other foods. Although this preparation of lutein dose is appropriate for conducting human studies with a limited number of subjects, other preparations of this compound into tablets or capsules can be accomplished. The formulation of β-carotene into tablets and capsules which has been developed by Hoffmann-La Roche Inc. (Nutley, N.J.), may also be found suitable for lutein with some minor modifications.

On to `CC1=C[C@H](O)CC(C)(C)[C@H]1/C=C/C(C)=C/C=C/C(C)=C/C=C/C=C(C)/C=C/C=C(C)/C=C/C1=C(C)C[C@@H](O)CC1(C)C` [lutein, (3R,3′R,6′R)-β,ε-Carotene-3,3′-diol], for which the “absorption of lutein by the subjects as determined from analysis of their plasma carotenoid profile” value in data set [1] is listed as “excellent absorption”. Further, the “stability of lutein suspension in olive oil” value in data set [2] is “stable for up to one month”.

Source of the values: USRE40912E1, “Process for isolation, purification, and recrystallization of lutein from saponified marigold oleoresin and uses thereof” (The Catholic University of America, priority 1994, dated 2009).
